Assay results from US9416145B2, “Compositions and methods for inhibiting activity of hypoxia-inducible transcription factor complex and its use for treatment of tumors” (priority 2012, dated 2016).

Assays:
[1] = system: HIF1 inducible promoter (hRE-hCMV-Luc) in MDA-MB-231 cells; assay: Luciferase assay of hypoxia-inducible promoter activity; type: cell-based, human; conditions: MDA-MB-231 hRE-hCMV-Luc, 300 uM desferrioxamine mesylate 18 h; 200 nM and 600 nM
Experimental: We first examined the effect of designed ETPs on activation of the HIF1 inducible promoters. […] In the course of the experiment, cells were incubated with ETPs LS69, LS72, LS75 and DKP compound NP481. In parallel, untreated cells with only vehicle (DMSO) added, were used as controls. Hypoxia conditions were induced by incubating cells with 300 uM desferrioxamine mesylate for 18 h. Cells were harvested, lysed and the levels of luciferase were determined by a luminometer.
Luciferase assays. MDA-MB-231-hRE-Luc cells were maintained in high glucose Dulbecco's Modified Eagles' Medium (DMEM) supplemented with 10%© fetal bovine serum and 0.4 g/L Geneticin (G418 sulfate, RPI Corporation). Cells were plated in 24-well dishes (BD Falcon) at a density of 6×10^4 cells/well using 1 mL of a 6.5×10^4 cell/mL suspension. […] Cells were incubated for 6 h at 37° C. in a humidified atmosphere with 5% CO2. Hypoxia was induced by adding desferrioxamine mesylate (DFO, Sigma) to a final concentration of 300 μM, and cells were incubated for an additional 18 hours. Whole cell lysate was isolated by washing the cells twice with ice cold PBS and then adding 150 μL of Cell Culture Lysis Reagent (CCLR, Promega). Lysate was collected, centrifuged at 13,000 rpm at 4° C., aliquoted, and stored at −80° C. Luciferase assays were conducted by allowing whole cell lysate and Luciferase Assay Reagent (Promega) come to ambient temperature for 1 hour prior to use. Luciferase assays were conducted according to the manufacturer's instructions (Promega) using a Turner TD-20e Luminometer. Relative light intensity measurements were normalized by performing a Bradford assay to determine the protein content of the lysate used in the luciferase assay. Briefly, 50 μL of cell lysate/luciferase assay reagent mix was added to 200 μL of Bradford reagent and 750 μl, of Millipore water in a 1.5 mL cuvette. Protein standards were created in the range of 1 mg/mL to 10 μg/mL using an appropriate amount of a 1 mg/mL BSA solution. Absorbance was measured at 595 nm using a DU-800 spectrophotometer. The experiments were carried out in triplicate. The results are presented in FIG. 6 with the bar graphs represent mean values, and error bars—standard error of the mean value.

[2] = MTT cytotoxicity assay in MCF7 cells; type: cell-based; conditions: human, MCF7, 24 h treatment
Experimental: FIG. 10 MTT cytotoxicity assay for LS72 in MCF7 cells. Cells were maintained in RPMI-1640 media supplemented with 10% FBS. Cells were treated with different concentrations of LS72 for 24 hours and the amount of purple formazan formed was determined via spectrophotometry.
Based on this EC50 value of LS72 in MCF7 cells we chose to measure its effect on HIF inducible transcription at a maximum concentration of 400 nM in MCF7 cells. This is important in order to minimize the nonspecific effects on mRNA levels due to reduction in cell viability.

[3] = system: CXCR4 mRNA in A549 cells; assay: qRT-PCR of CXCR4 mRNA in A549 cells; type: cell-based
Experimental: FIGS. 14 (A) qRT-PCR data for LOX and (B) CXCR4 genes in A549 cells treated with LS72. Hypoxia was induced by hypoxia bag. Cells were maintained in F-12K medium with 2% serum. After reaching 65% confluency the cells were grown in serum free media and treated with LS72 (400 nM). Hypoxia was induced with DFO (300 μM) for 48 h. Error bars are s.e.m. of experiments performed in triplicate. **P<0.01, t test.
FIG. 18 qRT-PCR data for A549 cells where hypoxia was induced in 85% confluent cells. […] Error bars are ±sem for the experiments performed in triplicate. […] ** P<0.01, # P<0.1, t test.
After tests with various serum levels in the media and hypoxia induction methods, the conditions that worked remarkably and consistently well for the induction of HIF1α dependent genes were to keep A549 cells in 2% serum followed by treating cells with compound or control in the media with 0.2% serum for 48 h (FIG. 13). Under these conditions while hypoxia bag was the best option for induction of the LOX gene, the best hypoxic response leading to upregulation of many other HIF1α inducible genes was treatment with 300 μM DFO.
The hypoxia induction was done at a confluency of 85% cells in serum free F-12K medium with 300 μM DFO.

[4] = system: global transcript levels (28,869 transcripts) in MCF7 cells; assay: Gene expression profiling with Affymetrix Human Gene ST 1.0 Arrays; type: cell-based
Text: Since the target proteins p300 and CBP are pleiotropic multidomain coactivators, their CH1 regions contain binding sites for multiple transcription factors. One potential concern of the use of ETPs for gene regulation is specificity, because inhibiting the interaction between CBP/p300 and transcription factors other than HIF1α may result in large numbers of affected genes. To rule out nonspecific genome-wide effects of ETPs, we conducted in vitro gene expression profiling experiments with LS72 using Affymetrix Human Gene ST 1.0 Arrays containing oligonucleotide sequences representing 28,869 transcripts.^67,68
In order to interrogate cellular genome for global effects, MCF7 cells treated with LS72 at 400 nM were used. Treatment of cells with LS72 at a concentration of 400 nM affected the expression of only 178 genes at ≧2.0 fold levels (FIG. 20). By comparison, treatment with DFO alone changed levels of 329 genes ≧2.0 fold. […] In cells treated with LS72 under DFO-induced hypoxia conditions, we identified 190 genes were affected by this compound. Clustering analysis was performed to identify similarities in the expression profiles between different treatments (FIG. 19).

[5] = MCF7, hypoxic induction with DFO (300 μM), LS72 400 nM

CN1C(=O)[C@]2(Cc3ccc(CCc4ccc(C[C@@]56SS[C@@](CO)(C(=O)N5C)N(C)C6=O)cc4)cc3)SS[C@@]1(CO)C(=O)N2C (racemic) [LS72, 4,4′-((ethane-1,2-diylbis(4,1-phenylene))bis(methylene))bis(1-(hydroxymethyl)-5,7-dimethyl-2,3-dithia-5,7-diazabicyclo[2.2.2]octane-6,8-dione)]
hypoxia-inducible promoter activity (luciferase) [1]: significant reduction in hypoxia-inducible promoter activity | EC50 at 24 h [2]: 547 nM | CXCR4 mRNA levels, dose response ([3]; A549 85% confluent, 300 μM DFO, 400 nM and 1600 nM): dose-dependent decrease | CXCR4 transcriptional activity (in words) ([3]; A549, 400 nM): excellent inhibition of the transcriptional activity | number of genes downregulated ≧2.0 fold ([4]; MCF7, LS72 400 nM): 88 genes | number of genes upregulated by ≧2.0 fold ([4]; MCF7, LS72 400 nM): 90 genes | number of genes with expression affected at ≧2.0 fold levels ([4]; MCF7, LS72 400 nM): 178 genes | number of genes affected under DFO-induced hypoxia ([4]; MCF7, LS72 under DFO-induced hypoxia conditions): 190 genes | CAV1 (Entrez 857) expression change, microarray [4, 5]: −1.3 | LOXL2 (Entrez 4017) expression change, microarray [4, 5]: −1.4 | MET (Entrez 4233) expression change, microarray [4, 5]: −2.2 | SLC5A6 (Entrez 8884) expression change, microarray [4, 5]: −2.4 | SLC5A8 (Entrez 160728) expression change, microarray [4, 5]: −1.4 | SLC7A2 (Entrez 6542) expression change, microarray [4, 5]: −2.5 | SLC9A2 (Entrez 6549) expression change, microarray [4, 5]: −1.8 | SLC9A3R1 (Entrez 9368) expression change, microarray [4, 5]: −1.6 | SLC25A12 (Entrez 8604) expression change, microarray [4, 5]: −1.8 | SLC25A15 (Entrez 10166) expression change, microarray [4, 5]: −1.5 | SLC26A2 (Entrez 1836) expression change, microarray [4, 5]: −1.4 | SLC27A4 (Entrez 10999) expression change, microarray [4, 5]: −1.4 | SLC35A1 (Entrez 10559) expression change, microarray [4, 5]: −2.2 | SLC35D1 (Entrez 23169) expression change, microarray [4, 5]: −3.1 | SLC38A9 (Entrez 153129) expression change, microarray [4, 5]: −1.5 | SLC39A11 (Entrez 201266) expression change, microarray [4, 5]: −1.9 | TFRC (Entrez 7037) expression change, microarray [4, 5]: −1.5 | TGFB3 (Entrez 7043) expression change, microarray [4, 5]: −1.5
